Laboratory results published in ChEMBL document CHEMBL3132769, “Fragment growing to retain or alter the selectivity of anchored kinase hinge-binding fragments” (Medchemcomm, 2014).

Key:
[1] = target: Serine/threonine-protein kinase MARK1 (Homo sapiens) (UniProt Q9P0L2); test: Inhibition of human full length MARK1 expressed in baculovirus assessed as substrate phosphorylation using fluorescence-labelled peptides as substrate at 70 uM after 90 mins by microfluidic peptide phosphorylation assay
[2] = target: Proto-oncogene tyrosine-protein kinase Src (Homo sapiens) (UniProt P12931); test: Inhibition of human full length SRC expressed in baculovirus assessed as substrate phosphorylation using fluorescence-labelled peptides as substrate at 0.2 uM after 90 mins by microfluidic peptide phosphorylation assay
[3] = target: RAC-alpha serine/threonine-protein kinase (Homo sapiens) (UniProt P31749); test: Inhibition of human AKT1 catalytic domain expressed in baculovirus assessed as substrate phosphorylation using fluorescence-labelled peptides as substrate at 0.2 uM after 90 mins by microfluidic peptide phosphorylation assay
[4] = target: MAP kinase-activated protein kinase 2 (Homo sapiens) (UniProt P49137); test: Inhibition of human full length MAPKAPK2 expressed in baculovirus assessed as substrate phosphorylation using fluorescence-labelled peptides as substrate at 0.2 uM after 90 mins by microfluidic peptide phosphorylation assay
[5] = target: T1, Mitogen-activated protein kinase 12 (Homo sapiens) (UniProt P53778); test: Inhibition of human full length p38 gamma expressed in Escherichia coli cell assessed as substrate phosphorylation using fluorescence-labelled peptides as substrate at 95 uM after 90 mins by microfluidic peptide phosphorylation assay
T1 sequence (whole entry): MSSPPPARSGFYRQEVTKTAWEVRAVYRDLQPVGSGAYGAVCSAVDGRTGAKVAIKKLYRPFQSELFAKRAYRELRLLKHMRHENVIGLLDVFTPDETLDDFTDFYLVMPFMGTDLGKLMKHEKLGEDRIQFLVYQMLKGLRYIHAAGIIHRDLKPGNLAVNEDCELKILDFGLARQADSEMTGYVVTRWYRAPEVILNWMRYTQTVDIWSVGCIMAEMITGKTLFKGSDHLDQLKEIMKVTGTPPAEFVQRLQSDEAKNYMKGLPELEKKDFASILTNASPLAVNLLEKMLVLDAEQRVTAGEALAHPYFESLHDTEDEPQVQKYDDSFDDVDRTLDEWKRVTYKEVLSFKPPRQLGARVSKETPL

[6] = target: T2, Mitogen-activated protein kinase 13 (Homo sapiens) (UniProt O15264); test: Inhibition of human full length p38 delta expressed in Escherichia coli cell assessed as substrate phosphorylation using fluorescence-labelled peptides as substrate at 95 uM after 90 mins by microfluidic peptide phosphorylation assay
T2 sequence (whole entry): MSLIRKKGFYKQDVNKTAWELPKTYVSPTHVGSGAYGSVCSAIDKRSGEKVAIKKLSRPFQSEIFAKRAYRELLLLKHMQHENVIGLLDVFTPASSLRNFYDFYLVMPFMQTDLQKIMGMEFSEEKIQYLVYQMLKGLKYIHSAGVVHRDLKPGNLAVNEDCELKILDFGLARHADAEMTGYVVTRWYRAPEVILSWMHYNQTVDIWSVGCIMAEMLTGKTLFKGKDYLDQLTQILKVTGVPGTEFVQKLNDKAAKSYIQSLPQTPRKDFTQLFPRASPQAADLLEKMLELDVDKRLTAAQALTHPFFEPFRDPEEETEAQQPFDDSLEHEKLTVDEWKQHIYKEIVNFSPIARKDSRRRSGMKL

[7] = target: Protein kinase C eta type (Homo sapiens) (UniProt P24723); test: Inhibition of human truncated PKC eta expressed in baculovirus assessed as substrate phosphorylation using fluorescence-labelled peptides as substrate at 95 uM after 90 mins by microfluidic peptide phosphorylation assay
[8] = target: T3, Serine/threonine-protein kinase Sgk3 (Homo sapiens) (UniProt Q96BR1); test: Inhibition of human full length SGK3 expressed in baculovirus assessed as substrate phosphorylation using fluorescence-labelled peptides as substrate at 95 uM after 90 mins by microfluidic peptide phosphorylation assay
T3 sequence (whole entry): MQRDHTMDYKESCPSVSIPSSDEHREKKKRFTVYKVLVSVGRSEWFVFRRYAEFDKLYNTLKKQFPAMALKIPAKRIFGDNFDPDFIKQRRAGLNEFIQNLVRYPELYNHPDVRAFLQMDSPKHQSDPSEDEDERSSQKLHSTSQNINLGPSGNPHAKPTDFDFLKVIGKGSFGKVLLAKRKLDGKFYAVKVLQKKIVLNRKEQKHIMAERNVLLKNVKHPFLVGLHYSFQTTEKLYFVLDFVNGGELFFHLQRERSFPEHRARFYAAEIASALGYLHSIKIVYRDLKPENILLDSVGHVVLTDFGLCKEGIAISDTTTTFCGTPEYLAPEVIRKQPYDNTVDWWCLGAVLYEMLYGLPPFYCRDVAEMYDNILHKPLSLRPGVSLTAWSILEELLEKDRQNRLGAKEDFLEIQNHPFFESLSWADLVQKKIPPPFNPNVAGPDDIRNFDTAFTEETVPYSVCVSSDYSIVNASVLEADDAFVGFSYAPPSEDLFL

[9] = target: MAP/microtubule affinity-regulating kinase 3 (Homo sapiens) (UniProt P27448); test: Inhibition of human full length c-TAK1 expressed in Escherichia coli cell assessed as substrate phosphorylation using fluorescence-labelled peptides as substrate at 9 uM after 90 mins by microfluidic peptide phosphorylation assay
[10] = target: Protein kinase C beta type (Homo sapiens) (UniProt P05771); test: Inhibition of human full length PKC beta2 expressed in baculovirus assessed as substrate phosphorylation using fluorescence-labelled peptides as substrate at 9 uM after 90 mins by microfluidic peptide phosphorylation assay
[11] = target: Glycogen synthase kinase-3 beta (Homo sapiens) (UniProt P49841); test: Inhibition of human full length GSK-3 beta expressed in baculovirus assessed as substrate phosphorylation using fluorescence-labelled peptides as substrate at 1000 uM after 90 mins by microfluidic peptide phosphorylation assay
[12] = target: Protein kinase C alpha type (Homo sapiens) (UniProt P17252); test: Inhibition of human truncated PKC alpha expressed in baculovirus assessed as substrate phosphorylation using fluorescence-labelled peptides as substrate at 1000 uM after 90 mins by microfluidic peptide phosphorylation assay
[13] = target: Casein kinase I isoform alpha (Homo sapiens) (UniProt P48729); test: Inhibition of human full length CSNK1A1 expressed in baculovirus assessed as substrate phosphorylation using fluorescence-labelled peptides as substrate at 2 uM after 90 mins by microfluidic peptide phosphorylation assay
[14] = target: Protein kinase C beta type (Homo sapiens) (UniProt P05771); test: Inhibition of human truncated PKC beta1 expressed in baculovirus assessed as substrate phosphorylation using fluorescence-labelled peptides as substrate at […] after 90 mins by microfluidic peptide phosphorylation assay
[15] = target: Platelet-derived growth factor receptor alpha (Homo sapiens) (UniProt P16234); test: Inhibition of human PDGFR alpha catalytic domain expressed in baculovirus assessed as substrate phosphorylation using fluorescence-labelled peptides as substrate at 0.1 uM after 90 mins by microfluidic peptide phosphorylation assay
Platelet-derived growth factor receptor alpha (Homo sapiens), sequence (P16234 whole entry, the tested form may be a part): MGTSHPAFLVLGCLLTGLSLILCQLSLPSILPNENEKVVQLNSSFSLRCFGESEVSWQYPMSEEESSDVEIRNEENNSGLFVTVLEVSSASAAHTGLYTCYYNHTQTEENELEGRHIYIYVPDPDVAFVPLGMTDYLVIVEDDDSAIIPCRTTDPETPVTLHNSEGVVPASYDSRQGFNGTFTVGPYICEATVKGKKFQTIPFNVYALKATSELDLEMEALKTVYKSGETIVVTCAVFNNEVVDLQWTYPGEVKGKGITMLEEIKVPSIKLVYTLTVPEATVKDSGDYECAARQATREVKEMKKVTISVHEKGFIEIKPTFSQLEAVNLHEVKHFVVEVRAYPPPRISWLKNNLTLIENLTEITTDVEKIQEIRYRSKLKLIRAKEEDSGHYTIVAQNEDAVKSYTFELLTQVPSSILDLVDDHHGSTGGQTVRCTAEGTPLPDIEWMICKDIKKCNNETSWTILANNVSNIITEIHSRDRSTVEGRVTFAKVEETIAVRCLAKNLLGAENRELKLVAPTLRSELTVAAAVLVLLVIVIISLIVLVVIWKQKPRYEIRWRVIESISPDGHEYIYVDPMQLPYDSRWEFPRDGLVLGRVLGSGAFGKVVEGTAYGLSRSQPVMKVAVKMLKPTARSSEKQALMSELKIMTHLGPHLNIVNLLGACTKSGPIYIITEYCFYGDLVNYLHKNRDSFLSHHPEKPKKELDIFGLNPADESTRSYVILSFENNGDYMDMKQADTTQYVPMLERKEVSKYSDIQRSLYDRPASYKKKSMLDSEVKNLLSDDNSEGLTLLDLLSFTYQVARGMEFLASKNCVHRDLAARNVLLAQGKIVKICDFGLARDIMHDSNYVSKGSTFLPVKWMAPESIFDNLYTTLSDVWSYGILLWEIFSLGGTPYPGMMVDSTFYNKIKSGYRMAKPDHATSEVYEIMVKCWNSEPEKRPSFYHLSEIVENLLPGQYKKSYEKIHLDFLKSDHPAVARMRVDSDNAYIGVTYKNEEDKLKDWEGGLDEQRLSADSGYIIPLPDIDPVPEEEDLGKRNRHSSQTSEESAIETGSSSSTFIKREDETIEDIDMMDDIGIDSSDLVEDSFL

Protein kinase C beta type (Homo sapiens), sequence (P05771 2-671 limits assumed): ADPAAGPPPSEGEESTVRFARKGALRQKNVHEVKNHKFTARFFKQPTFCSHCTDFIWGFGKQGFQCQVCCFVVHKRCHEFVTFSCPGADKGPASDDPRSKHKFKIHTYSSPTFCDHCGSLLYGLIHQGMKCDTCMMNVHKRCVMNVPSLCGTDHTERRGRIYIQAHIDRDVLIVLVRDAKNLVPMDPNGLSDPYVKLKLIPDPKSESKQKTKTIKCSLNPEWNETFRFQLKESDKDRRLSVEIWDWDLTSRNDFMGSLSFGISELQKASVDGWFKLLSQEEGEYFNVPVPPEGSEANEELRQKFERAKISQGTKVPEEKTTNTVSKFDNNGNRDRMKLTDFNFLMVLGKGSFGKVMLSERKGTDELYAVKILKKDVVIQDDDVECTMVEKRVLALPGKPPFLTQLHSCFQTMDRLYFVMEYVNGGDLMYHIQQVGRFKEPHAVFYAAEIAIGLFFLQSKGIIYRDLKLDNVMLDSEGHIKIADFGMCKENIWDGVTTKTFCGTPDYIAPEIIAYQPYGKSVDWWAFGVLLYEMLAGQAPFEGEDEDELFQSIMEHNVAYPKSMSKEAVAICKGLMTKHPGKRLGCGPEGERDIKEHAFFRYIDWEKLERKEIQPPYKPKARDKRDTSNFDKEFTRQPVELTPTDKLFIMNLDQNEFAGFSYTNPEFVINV
Casein kinase I isoform alpha (Homo sapiens), sequence (P48729 2-337 limits assumed): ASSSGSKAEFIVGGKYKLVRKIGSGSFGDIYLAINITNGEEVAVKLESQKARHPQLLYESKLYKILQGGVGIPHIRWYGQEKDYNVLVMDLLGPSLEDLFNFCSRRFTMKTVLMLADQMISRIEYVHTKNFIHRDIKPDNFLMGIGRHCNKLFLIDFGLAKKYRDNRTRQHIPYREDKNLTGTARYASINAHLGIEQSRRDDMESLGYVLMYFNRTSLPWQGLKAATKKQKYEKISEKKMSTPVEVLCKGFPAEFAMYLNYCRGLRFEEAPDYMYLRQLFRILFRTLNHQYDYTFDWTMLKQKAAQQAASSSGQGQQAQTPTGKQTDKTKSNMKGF
MAP kinase-activated protein kinase 2 (Homo sapiens), sequence (P49137 whole entry, looked up): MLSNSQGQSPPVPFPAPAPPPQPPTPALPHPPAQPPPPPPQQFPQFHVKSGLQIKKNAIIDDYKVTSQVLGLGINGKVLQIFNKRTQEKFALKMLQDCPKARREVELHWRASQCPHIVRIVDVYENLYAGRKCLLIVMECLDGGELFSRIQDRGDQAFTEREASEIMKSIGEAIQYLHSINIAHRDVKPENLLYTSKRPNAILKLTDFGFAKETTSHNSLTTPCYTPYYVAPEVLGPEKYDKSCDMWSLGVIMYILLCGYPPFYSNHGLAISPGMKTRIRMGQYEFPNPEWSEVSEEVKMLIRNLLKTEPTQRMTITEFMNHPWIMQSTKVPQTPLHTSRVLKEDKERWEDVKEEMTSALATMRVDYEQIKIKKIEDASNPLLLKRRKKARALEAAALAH
Protein kinase C eta type (Homo sapiens), sequence (P24723 whole entry, the tested form may be a part): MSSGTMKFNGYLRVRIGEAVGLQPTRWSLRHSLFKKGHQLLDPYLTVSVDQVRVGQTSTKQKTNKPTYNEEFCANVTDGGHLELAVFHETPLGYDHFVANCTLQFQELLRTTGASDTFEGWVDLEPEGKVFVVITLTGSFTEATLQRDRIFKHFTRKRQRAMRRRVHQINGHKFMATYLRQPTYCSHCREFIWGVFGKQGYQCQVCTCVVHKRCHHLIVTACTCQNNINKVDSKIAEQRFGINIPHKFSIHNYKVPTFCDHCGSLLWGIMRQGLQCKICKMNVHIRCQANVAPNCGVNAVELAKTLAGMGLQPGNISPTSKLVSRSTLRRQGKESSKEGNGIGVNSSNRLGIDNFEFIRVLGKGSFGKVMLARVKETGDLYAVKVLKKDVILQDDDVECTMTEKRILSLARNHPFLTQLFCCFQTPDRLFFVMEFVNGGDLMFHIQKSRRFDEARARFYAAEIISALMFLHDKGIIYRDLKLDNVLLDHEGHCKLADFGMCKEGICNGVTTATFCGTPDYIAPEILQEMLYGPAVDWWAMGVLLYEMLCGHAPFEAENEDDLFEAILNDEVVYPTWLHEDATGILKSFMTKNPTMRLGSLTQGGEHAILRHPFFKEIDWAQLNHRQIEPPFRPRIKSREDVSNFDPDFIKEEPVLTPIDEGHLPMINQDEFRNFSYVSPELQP
Glycogen synthase kinase-3 beta (Homo sapiens), sequence (P49841 whole entry, looked up, the tested form may be a part): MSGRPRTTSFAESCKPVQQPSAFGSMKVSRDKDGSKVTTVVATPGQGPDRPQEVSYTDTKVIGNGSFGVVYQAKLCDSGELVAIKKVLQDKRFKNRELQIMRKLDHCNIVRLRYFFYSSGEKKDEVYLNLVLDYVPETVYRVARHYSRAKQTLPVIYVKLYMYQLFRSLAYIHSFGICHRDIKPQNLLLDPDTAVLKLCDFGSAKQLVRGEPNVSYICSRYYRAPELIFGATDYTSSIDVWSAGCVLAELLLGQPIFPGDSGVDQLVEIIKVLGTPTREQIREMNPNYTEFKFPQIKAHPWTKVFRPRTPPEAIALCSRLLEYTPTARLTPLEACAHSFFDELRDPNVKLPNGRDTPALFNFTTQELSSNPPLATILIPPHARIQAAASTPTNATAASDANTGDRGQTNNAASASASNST
Proto-oncogene tyrosine-protein kinase Src (Homo sapiens), sequence (P12931 2-536 limits assumed): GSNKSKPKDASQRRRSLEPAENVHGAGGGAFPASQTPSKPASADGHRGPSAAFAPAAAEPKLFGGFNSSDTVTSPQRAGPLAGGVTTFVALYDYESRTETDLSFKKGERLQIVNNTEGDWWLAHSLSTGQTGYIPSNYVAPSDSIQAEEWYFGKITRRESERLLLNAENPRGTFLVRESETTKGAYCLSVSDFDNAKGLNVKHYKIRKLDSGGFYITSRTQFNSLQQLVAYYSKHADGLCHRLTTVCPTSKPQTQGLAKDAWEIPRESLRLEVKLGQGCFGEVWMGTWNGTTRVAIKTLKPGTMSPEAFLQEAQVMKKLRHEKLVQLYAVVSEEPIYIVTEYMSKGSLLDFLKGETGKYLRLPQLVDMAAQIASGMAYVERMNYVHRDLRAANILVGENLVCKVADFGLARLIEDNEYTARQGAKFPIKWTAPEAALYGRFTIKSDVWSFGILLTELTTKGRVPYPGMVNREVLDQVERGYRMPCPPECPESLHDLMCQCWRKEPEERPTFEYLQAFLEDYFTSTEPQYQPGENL
Serine/threonine-protein kinase MARK1 (Homo sapiens), sequence (Q9P0L2 whole entry, looked up): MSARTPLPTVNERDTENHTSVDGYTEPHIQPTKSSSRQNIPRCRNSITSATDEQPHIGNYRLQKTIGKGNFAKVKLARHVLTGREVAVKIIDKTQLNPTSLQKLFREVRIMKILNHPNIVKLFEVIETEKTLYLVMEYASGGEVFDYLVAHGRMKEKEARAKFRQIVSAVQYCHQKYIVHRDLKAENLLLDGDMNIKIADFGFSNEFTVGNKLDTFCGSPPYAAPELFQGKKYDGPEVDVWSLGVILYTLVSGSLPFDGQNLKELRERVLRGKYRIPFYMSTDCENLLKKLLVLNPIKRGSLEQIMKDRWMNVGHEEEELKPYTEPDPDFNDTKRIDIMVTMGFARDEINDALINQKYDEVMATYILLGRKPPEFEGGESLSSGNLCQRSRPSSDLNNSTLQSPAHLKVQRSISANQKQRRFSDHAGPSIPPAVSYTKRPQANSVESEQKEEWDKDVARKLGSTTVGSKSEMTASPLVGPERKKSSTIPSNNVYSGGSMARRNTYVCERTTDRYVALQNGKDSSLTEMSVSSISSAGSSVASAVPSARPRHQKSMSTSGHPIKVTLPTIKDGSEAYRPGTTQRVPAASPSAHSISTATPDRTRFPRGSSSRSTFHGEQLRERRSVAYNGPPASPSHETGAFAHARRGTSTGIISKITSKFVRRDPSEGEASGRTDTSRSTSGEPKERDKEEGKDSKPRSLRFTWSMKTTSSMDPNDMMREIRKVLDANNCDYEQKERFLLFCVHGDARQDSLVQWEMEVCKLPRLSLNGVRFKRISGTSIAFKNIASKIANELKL

## CNCc1ccc(-c2ncnc3[nH]cnc23)cc1
[1]
  inhibition: 52%

## Clc1ccc(C2(c3ccc(-c4ncnc5[nH]cnc45)cc3)CCNCC2)cc1
[2]
  inhibition: 24.5%
[3]
  inhibition: 94%
[4]
  inhibition: 10.5%

## NCCc1ccc(-c2ncnc3[nH]cnc23)cc1
[5]
  inhibition: 13%
[6]
  inhibition: 13%
[7]
  inhibition: 86.5%
[8]
  inhibition: 41.5%

## NCC1CN(c2ncnc3[nH]c4cnccc4c23)CCO1 (stereo not given)
[9]
  inhibition: 30%
[10]
  inhibition: 23.5%

## c1cnc2[nH]ccc2c1
[11]
  inhibition: 32%
[12]
  inhibition: 43%

## NC1CCN(c2ncnc3[nH]ccc23)CC1
[13]
  inhibition: 9.5%

## COC(=O)c1cnc(Nc2cnc(C#N)cn2)cc1NCC1CCNCC1
[14]
  inhibition: 2%

## C[C@H](CN(C)C)Oc1nc(Nc2cc3cccc(Cl)c3cn2)cnc1C#N
[15]
  inhibition: 8.5%
